Results taken from patent US9220672B2, “Peptide for use in the treatment of skin conditions” (ORGANOBALANCE GMBH, priority 2011, dated 2015).

Legend:
Format in all cases: cell-based
S. aureus = S. aureus in vitro liquid assay (microtiter plate, OD600nm); conditions: 1 mg/ml, SCD-bouillon (1:2), pH 6.5, vs control devoid of additive
Description: An S. aureus in vitro liquid assay was performed on a Microtiter plate having wells with a respective volume of 200 μl. To this effect, a 24 h cell culture of S. aureus was diluted 1:500 thus affording an optical density OD600nm of 0.05 in SCD-bouillon (1:2). One of the samples used in the experiment further contained the inventive tetrapeptide H-Lys(H-Asp-NH2)-Ala-Glu-NH2 in a concentration of 1 mg/ml. The pH of the samples was 6.5.

S. epidermidis [1] = test: S. epidermidis in vitro liquid assay (microtiter plate, OD600nm); conditions: SCD-bouillon (1:2), pH 6.5, vs control devoid of additive
Description: A Microtiter plate having wells with a respective volume of 200 μl was used for the S. epidermidis in vitro liquid assay. To this effect, a 24 h cell culture of S. epidermidis was diluted 1:200 thus affording an optical density OD600nm of 0.06 in SCD-bouillon (1:2). The samples used in the experiment further contained the inventive tetrapeptide H-Lys(H-Asp-NH2)-Ala-Glu-NH2 in respective concentrations of 1 mg/ml and 0.2 mg/ml. As control assay, samples containing 1 mg/ml of a mixture containing Alanine, Glutamine, Lysine, and Asparagine in equal parts and samples containing no further components in addition to S. epidermidis were respectively employed. The pH of all of the samples was 6.5.

S. epidermidis [2] = test: S. epidermidis growth stimulation, in-vitro hole plate assay on tellurite-TSA; conditions: 40 μl of 1 mg/ml solution per well, 35° C., 24 h, vs water control
Description: To this effect, an S. epidermidis growth simulation assay was employed, using potassium tellurite as the growth indicator, observed in the assay as brown zones. An S. epidermidis log phase culture at 1:200 (containing approximately 1×10^7 cfu/ml of bacteria) was used as the working culture in the experiment.
The working culture was plated onto tellurite-TSA, after which 5 mm diameter holes were respectively punched into the agar for forming the testing wells. 40 μl of a solution containing the tetrapeptide at a concentration of 1 mg/ml were then added to a first and second well, and the same volume of water was added as the control to a third well. The Petri dish was then incubated at 35° C. for 24 h.

With CC(NC(=O)C(N)CCCCNC(=O)CC(N)C(N)=O)C(=O)NC(CCC(=O)O)C(N)=O (stereo not drawn) [H-Lys(H-Asp-NH2)-Ala-Glu-NH2] the “growth of S. aureus (optical density OD600nm over incubation time)” value (S. aureus) was “clearly inhibited”, the “growth of S. epidermidis (optical density OD600nm over incubation time)” value (S. epidermidis [1]; 0.2 mg/ml) was “stimulation is already apparent” and the “growth of S. epidermidis (optical density OD600nm over incubation time)” value (S. epidermidis [1]; 1 mg/ml) was “clearly stimulates the growth”. For the same compound, the “growth of S. epidermidis (tellurite growth indicator zone around well)” value (S. epidermidis [2]) was “able to stimulate the growth” and the “growth of S. epidermidis (tellurite growth indicator zone around well)” value (S. epidermidis [2]; listed as inventive tetrapeptide) was “clearly stimulated”.
